Experimental data published in US10947188B2, “Small molecule ferroptosis inducers” (THE TRUSTEES OF COLUMBIA UNIVERSITY IN THE CITY OF NEW YORK, priority 2016, dated 2021).

System: BJeLR
Test: Modulatory profiling: Alamar Blue viability, lethal compound cotreated with death modulator (EC50, AUC); for AUC, modulator BJ.3MA: reference of the scale not given here; for AUC, modulator BJ.ALLN: reference of the scale not given here; for AUC, modulator BJ.Boc D: reference of the scale not given here; for AUC, modulator BJ.CHX: reference of the scale not given here; for AUC, modulator BJ.Co2+: reference of the scale not given here; for AUC, modulator BJ.DPQ: reference of the scale not given here; for AUC, modulator BJ.Gd3+: reference of the scale not given here; for AUC, modulator BJ.LNAME: reference of the scale not given here; for AUC, modulator BJ.NAD+: reference of the scale not given here; for AUC, modulator BJ.NMMA: reference of the scale not given here; for AUC, modulator BJ.Nec-1: reference of the scale not given here; for AUC, modulator BJ.Pepstatin: reference of the scale not given here; for AUC, modulator BJ.TLCK: reference of the scale not given here
Format: cell-based, human
Design: AUC, modulator BJ.Gd3+ / AUC, modulator BJ.LNAME / AUC, modulator BJ.Lmin / AUC, modulator BJ.3MA / AUC, modulator BJ.ALLN / AUC, modulator BJ.Boc D / AUC, modulator BJ.CHX / AUC, modulator BJ.Co2+ / AUC, modulator BJ.Nec-1 / AUC, modulator BJ.Pepstatin / AUC, modulator BJ.TLCK / AUC, modulator BJ.atoc / AUC, modulator BJ.trolox / AUC, modulator BJ.zVAD: unit not given beside the values
Settings: for AUC, modulator BJ.3MA / AUC, modulator BJ.ALLN / AUC, modulator BJ.Boc D / AUC, modulator BJ.CHX / AUC, modulator BJ.Co2+ / AUC, modulator BJ.DPQ / AUC, modulator BJ.Gd3+ / AUC, modulator BJ.LNAME / AUC, modulator BJ.Lmin/NAD+ / AUC, modulator BJ.Lmin / AUC, modulator BJ.NAD+ / AUC, modulator BJ.NMMA / AUC, modulator BJ.Nec-1 / AUC, modulator BJ.Pepstatin / AUC, modulator BJ.TLCK / AUC, modulator BJ.atoc / AUC, modulator BJ.trolox / AUC, modulator BJ.zVAD: BJeLR cells, modulatory profile value (AUC); for AUC, modulator BJ.3MA: lethal compound cotreated with modulator 3MA; for AUC, modulator BJ.ALLN: lethal compound cotreated with modulator ALLN; for AUC, modulator BJ.Boc D: lethal compound cotreated with modulator Boc D; for AUC, modulator BJ.CHX: lethal compound cotreated with modulator CHX; for AUC, modulator BJ.Co2+: lethal compound cotreated with modulator Co2+; for AUC, modulator BJ.DPQ: lethal compound cotreated with modulator DPQ; for AUC, modulator BJ.Gd3+: lethal compound cotreated with modulator Gd3+; for AUC, modulator BJ.LNAME: lethal compound cotreated with modulator LNAME; for AUC, modulator BJ.Lmin/NAD+: lethal compound cotreated with modulator Lmin/NAD+; for AUC, modulator BJ.Lmin: lethal compound cotreated with modulator Lmin; for AUC, modulator BJ.NAD+: lethal compound cotreated with modulator NAD+; for AUC, modulator BJ.NMMA: lethal compound cotreated with modulator NMMA; for AUC, modulator BJ.Nec-1: lethal compound cotreated with modulator Nec-1; for AUC, modulator BJ.Pepstatin: lethal compound cotreated with modulator Pepstatin; for AUC, modulator BJ.TLCK: lethal compound cotreated with modulator TLCK; for AUC, modulator BJ.atoc: lethal compound cotreated with modulator atoc; for AUC, modulator BJ.trolox: lethal compound cotreated with modulator trolox; for AUC, modulator BJ.zVAD: lethal compound cotreated with modulator zVAD; for EC50: Homo sapiens, BJeLR, 48 h

Structure (SMILES)	AUC, modulator BJ.3MA	AUC, modulator BJ.ALLN	AUC, modulator BJ.Boc D	AUC, modulator BJ.CHX	AUC, modulator BJ.Co2+	AUC, modulator BJ.DPQ	AUC, modulator BJ.Gd3+	AUC, modulator BJ.LNAME	AUC, modulator BJ.Lmin/NAD+	AUC, modulator BJ.Lmin	AUC, modulator BJ.NAD+	AUC, modulator BJ.NMMA	AUC, modulator BJ.Nec-1	AUC, modulator BJ.Pepstatin	AUC, modulator BJ.TLCK	AUC, modulator BJ.atoc	AUC, modulator BJ.trolox	AUC, modulator BJ.zVAD	also measured
CN(C)CCCOS(=O)(=O)c1ccc(N2CCC(c3ccc(Cl)cc3)=N2)cc1 [CIL40]	0.1131	−0.02592	−0.05607	−0.1423	0.03348	0.01887	−0.004738	0.002197	−0.06069	−0.05273	0.005587	0.05461	0.02442	−0.01642	−0.05358	0.05022	0.03943	0.007977	–
C=C(C)[C@H]1Cc2c(ccc3c2O[C@@H]2COc4cc(OC)c(OC)cc4[C@@H]2C3=O)O1 [Rotenone]	−0.0266	−0.03435	−0.01674	0.1066	0.0838	−0.02278	0.01421	−0.01131	0.1439	0.06492	0.1037	0.005801	−0.02888	0.02007	−0.02169	0.05116	−0.01075	0.04408	–
O=C1c2c(O)ccc(O)c2C(=O)c2c(NCCNCCO)ccc(NCCNCCO)c21 [Mitoxantrone]	0.03352	0.06204	0.03746	0.1437	0.4538	−0.05814	0.01069	0.007578	0.1162	0.04368	0.08733	0.004431	−0.03038	0.003263	0.02288	0.02585	−0.01862	0.0497	–
CC(C)C[C@H](NC(=O)[C@H](CC(C)C)NC(=O)[C@H](CC(C)C)NC(=O)OCc1ccccc1)B(O)O [MG262]	−0.0362	−0.1989	0.01756	0.2438	0.1109	0.005064	0.02134	0.02272	0.152	0.1437	0.06084	−0.006928	−0.01342	0.006624	0.09405	0.05198	0.008087	−0.05498	–
CC1=CC(C)(C)Nc2ccc(OC(=O)c3cccnc3)cc21 [CIL47]	0.1505	−0.02628	0.05397	−0.0269	−0.1379	0.06122	−0.02875	−0.02479	−0.01437	−0.01696	−0.06356	0.04023	−0.02203	0.05454	−0.03768	0.03519	−0.02806	−0.01497	–
COc1cc2c(c(OC)c1OC)-c1ccc(OC)c(=O)cc1[C@@H](NC(C)=O)CC2 [Colchicine]	0.003026	−0.03356	−0.0009082	0.161	0.1688	−0.03053	−0.01061	−0.008548	0.1409	0.05808	0.1128	−0.005221	−0.04443	0.003669	−0.01338	−0.02812	−0.004229	0.05702	–
O=C(/C=C/c1cccc(NC(=O)c2cccs2)c1)c1ccccc1 [CIL33]	0.06199	−0.1124	−0.03229	0.1026	0.04311	0.02549	−0.06539	−0.03157	−0.0126	0.01529	0.05051	0.0458	−0.08953	0.07672	−0.1077	0.0414	−0.05339	−0.02675	–
Cc1ccc(O)c(/N=C/C=C/c2cccc(Br)c2)c1 [CIL27]	0.0403	−0.06604	−0.08049	0.1399	0.05931	0.0171	−0.02406	−0.04381	0.02365	0.01472	−0.01357	0.009474	−0.05452	0.006509	−0.03065	0.002404	0.0004949	−0.003575	–
N/C(=N\OC(=O)C12CC3CC(CC(C3)C1)C2)c1ccccc1 [CIL41]	0.117	−0.08211	−0.06374	−0.0571	−0.02378	0.02161	−0.006767	0.00307	0.1504	0.2032	−0.0198	0.04219	0.09368	−0.03128	−0.02463	0.2729	0.1871	0.03607	EC50 (DMSO): 3.17 µM; EC50 (cotreated with Lmim_NAD): 22.6 µM; EC50 (cotreated with antioxidant Trolox): 23.2 µM; EC50 (cotreated with antioxidant atoc): 36.6 µM; EC50 (cotreated with iron-chelator Lmim): 22.4 µM
